Laboratory results as given in PubChem BioAssay AID2060504 (Molecular Pharmacology Branch, DTP, NCI, 2025).
pIC50: −log10 of the molar value.

Test system: 636577-100-R-J1-PDC complex spheroid viability
Assay: Anticancer human tumor 636577-100-R-J1-PDC patient-derived endometrial adenocarcinoma cell line growth inhibition [GQUAD]
Conditions: for pIC50: curve of first compound; for viability, T/C: stronger effect = lower value
How it was run: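 Multi-cell-type spheroids of tumor cells with HUVEC and mesenchymal stem cells, treated with drug combinations. Concentrations descend in half-log steps from near clinical Cmax, or from 10 microM where Cmax is unknown; viability read-out.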

[1] = second compound 0.0316 µM, first compound 0.0316 µM
[2] = second compound 0.0316 µM, first compound 0.316 µM
[3] = second compound 0.1 µM, first compound 0.0316 µM
[4] = second compound 0.1 µM, first compound 0.316 µM
[5] = second compound 0.316 µM, first compound 0.0316 µM
[6] = second compound 0.316 µM, first compound 0.316 µM
[7] = second compound 1 µM, first compound 0.0316 µM
[8] = second compound 1 µM, first compound 0.316 µM
[9] = second compound 3.16 µM, first compound 0.0316 µM
[10] = second compound 3.16 µM, first compound 0.316 µM
[11] = second compound 10 µM, first compound 0.0316 µM
[12] = second compound 10 µM, first compound 0.316 µM
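Also: viability read after seven days of drug exposure.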
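For viability, T/C in this document: luminescence signal used as a proxy for viable cells; 100% = DMSO vehicle control wells.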

CC(=O)O[C@H]1C(=O)[C@@]2(C)[C@H]([C@H](OC(=O)c3ccccc3)[C@]3(O)C[C@H](OC(=O)[C@H](O)[C@@H](NC(=O)c4ccccc4)c4ccccc4)C(C)=C1C3(C)C)[C@]1(OC(C)=O)CO[C@@H]1C[C@@H]2O + Cc1[nH]c2ccc(F)cc2c1-c1nc2c3cccnc3c3ncccc3c2[nH]1
pIC50 (second compound 0.0316 µM): > 7.50 | pIC50 (second compound 0.1 µM): > 7.50 | pIC50 (second compound 0.316 µM): > 7.50 | pIC50 (second compound 1 µM): > 7.50 | pIC50 (second compound 3.16 µM): > 7.50 | pIC50 (second compound 10 µM): > 7.50 | viability, T/C [1]: 16.9% | viability, T/C (second compound 0.0316 µM, first compound 0.1 µM): 14.4% | viability, T/C [2]: 13.5% | viability, T/C (second compound 0.0316 µM, first compound 1 µM): 12% | viability, T/C (second compound 0.0316 µM, first compound 3.16 µM): 11.2% | viability, T/C (second compound 0.0316 µM, first compound 10 µM): 11.2% | viability, T/C [3]: 15.5% | viability, T/C (second compound 0.1 µM, first compound 0.1 µM): 13.5% | viability, T/C [4]: 10.8% | viability, T/C (second compound 0.1 µM, first compound 1 µM): 9.49% | viability, T/C (second compound 0.1 µM, first compound 3.16 µM): 11.1% | viability, T/C (second compound 0.1 µM, first compound 10 µM): 9.8% | viability, T/C [5]: 17.3% | viability, T/C (second compound 0.316 µM, first compound 0.1 µM): 13.2% | viability, T/C [6]: 11.6% | viability, T/C (second compound 0.316 µM, first compound 1 µM): 10.4% | viability, T/C (second compound 0.316 µM, first compound 3.16 µM): 9.79% | viability, T/C (second compound 0.316 µM, first compound 10 µM): 11.4% | viability, T/C [7]: 16.5% | viability, T/C (second compound 1 µM, first compound 0.1 µM): 12% | viability, T/C [8]: 12% | viability, T/C (second compound 1 µM, first compound 1 µM): 12.1% | viability, T/C (second compound 1 µM, first compound 3.16 µM): 10.9% | viability, T/C (second compound 1 µM, first compound 10 µM): 11% | viability, T/C [9]: 15.3% | viability, T/C (second compound 3.16 µM, first compound 0.1 µM): 11.7% | viability, T/C [10]: 13.8% | viability, T/C (second compound 3.16 µM, first compound 1 µM): 12.5% | viability, T/C (second compound 3.16 µM, first compound 3.16 µM): 10.7% | viability, T/C (second compound 3.16 µM, first compound 10 µM): 8.71% | viability, T/C [11]: 15.6% | viability, T/C (second compound 10 µM, first compound 0.1 µM): 13.5% | viability, T/C [12]: 10.5% | viability, T/C (second compound 10 µM, first compound 1 µM): 11.4% | viability, T/C (second compound 10 µM, first compound 3.16 µM): 12.7% | viability, T/C (second compound 10 µM, first compound 10 µM): 12.6%

Cn1ncnc1[C@H]1c2n[nH]c(=O)c3cc(F)cc(c23)N[C@@H]1c1ccc(F)cc1 + CN(C)c1ccc(Nc2c3ccc(NC(=O)CCN4CCCC4)cc3nc3cc(NC(=O)CCN4CCCC4)ccc23)cc1
pIC50 (second compound 0.0316 µM): 7.37 | pIC50 (second compound 0.1 µM): 7.61 | pIC50 (second compound 0.316 µM): 7.46 | pIC50 (second compound 1 µM): 7.35 | pIC50 (second compound 3.16 µM): > 9.00 | pIC50 (second compound 10 µM): > 9.00 | viability, T/C (second compound 0.0316 µM, first compound 0.000999 µM): 95.1% | viability, T/C (second compound 0.0316 µM, first compound 0.00316 µM): 78.8% | viability, T/C (second compound 0.0316 µM, first compound 0.00999 µM): 84.6% | viability, T/C [1]: 50.4% | viability, T/C (second compound 0.0316 µM, first compound 0.0999 µM): 42.2% | viability, T/C [2]: 29% | viability, T/C (second compound 0.1 µM, first compound 0.000999 µM): 102% | viability, T/C (second compound 0.1 µM, first compound 0.00316 µM): 73% | viability, T/C (second compound 0.1 µM, first compound 0.00999 µM): 56.1% | viability, T/C [3]: 51.4% | viability, T/C (second compound 0.1 µM, first compound 0.0999 µM): 46.7% | viability, T/C [4]: 23% | viability, T/C (second compound 0.316 µM, first compound 0.000999 µM): 81.9% | viability, T/C (second compound 0.316 µM, first compound 0.00316 µM): 63.7% | viability, T/C (second compound 0.316 µM, first compound 0.00999 µM): 59.3% | viability, T/C [5]: 49.7% | viability, T/C (second compound 0.316 µM, first compound 0.0999 µM): 48.6% | viability, T/C [6]: 37.8% | viability, T/C (second compound 1 µM, first compound 0.000999 µM): 63.2% | viability, T/C (second compound 1 µM, first compound 0.00316 µM): 63.6% | viability, T/C (second compound 1 µM, first compound 0.00999 µM): 61.2% | viability, T/C [7]: 52.1% | viability, T/C (second compound 1 µM, first compound 0.0999 µM): 40.2% | viability, T/C [8]: 38.2% | viability, T/C (second compound 3.16 µM, first compound 0.000999 µM): 42.7% | viability, T/C (second compound 3.16 µM, first compound 0.00316 µM): 41.5% | viability, T/C (second compound 3.16 µM, first compound 0.00999 µM): 33.8% | viability, T/C [9]: 31.4% | viability, T/C (second compound 3.16 µM, first compound 0.0999 µM): 25.1% | viability, T/C [10]: 24.9% | viability, T/C (second compound 10 µM, first compound 0.000999 µM): 7.06% | viability, T/C (second compound 10 µM, first compound 0.00316 µM): 7.39% | viability, T/C (second compound 10 µM, first compound 0.00999 µM): 6.25% | viability, T/C [11]: 5.78% | viability, T/C (second compound 10 µM, first compound 0.0999 µM): 5.88% | viability, T/C [12]: 4.9%
